According to ChEMBL document CHEMBL1201862, “PubChem BioAssay data set” (2004):
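Five concentrations, 48 hours, 96-well plates. GI50 = concentration required for 50% inhibition of growth.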 Active and inactive are the calls of the source. Cut-off read from the data, not from the text of the source: active = GI50 up to about 1.1 µM and inactive = higher.

Tests used:
Test in all cases: growth of human tumour cells (NCI), 48 h
ACHN = system: ACHN
SR = system: SR
K562 = system: K562
CAKI-1 = system: CAKI-1
TK-10 = system: TK-10
OVCAR-3 = system: OVCAR-3
MCF7 = system: MCF7
NCI-H23 = system: NCI-H23
DU-145 = system: DU-145
HL-60 = system: HL-60
NCI-H226 = system: NCI-H226
HOP-92 = system: HOP-92
SN12C = system: SN12C
MDA-N = system: MDA-N
NCI-H522 = system: NCI-H522
SK-MEL-28 = system: SK-MEL-28
Malme-3M = system: Malme-3M
U-251 = system: U-251
BT-549 = system: BT-549

Structure (SMILES) | GI50 (ACHN) | GI50 (SR) | GI50 (K562) | GI50 (CAKI-1) | GI50 (TK-10) | GI50 (OVCAR-3) | GI50 (MCF7) | GI50 (NCI-H23) | GI50 (DU-145) | GI50 (HL-60) | GI50 (NCI-H226) | GI50 (HOP-92) | GI50 (SN12C) | GI50 (MDA-N) | GI50 (NCI-H522) | GI50 (SK-MEL-28) | GI50 (Malme-3M) | GI50 (U-251) | GI50 (BT-549)
CCOC(=O)C(NC(=O)c1ccccc1)(Nc1ccc(S(=O)(=O)Nc2cc(C)nc(C)n2)cc1)C(F)(F)F (stereo not given) | > 100 µM (inactive) | > 100 µM (inactive) | > 100 µM (inactive) | > 100 µM (inactive) | > 100 µM (inactive) | > 100 µM (inactive) | > 100 µM (inactive) | > 100 µM (inactive) | > 100 µM (inactive) | > 100 µM (inactive) | > 100 µM (inactive) | > 100 µM (inactive) | > 100 µM (inactive) | > 100 µM (inactive) | > 100 µM (inactive) | > 100 µM (inactive) | > 100 µM (inactive) | > 100 µM (inactive) | –
OC1CCCC1C(O)(C(F)(F)F)C(F)(F)F (stereo not given) | > 100 µM (inactive) | > 100 µM (inactive) | > 100 µM (inactive) | > 100 µM (inactive) | > 100 µM (inactive) | > 100 µM (inactive) | > 100 µM (inactive) | > 100 µM (inactive) | > 100 µM (inactive) | > 100 µM (inactive) | > 100 µM (inactive) | > 100 µM (inactive) | > 100 µM (inactive) | > 100 µM (inactive) | > 100 µM (inactive) | > 100 µM (inactive) | > 100 µM (inactive) | > 100 µM (inactive) | –
Cc1cccc2c1C(=O)OC2(c1cccc2ccccc12)c1cccc2ccccc12 | 63.5 µM (inactive) | > 100 µM (inactive) | > 100 µM (inactive) | > 100 µM (inactive) | > 100 µM (inactive) | > 100 µM (inactive) | – | 26.7 µM (inactive) | – | > 100 µM (inactive) | > 100 µM (inactive) | – | > 100 µM (inactive) | – | 61 µM (inactive) | > 100 µM (inactive) | > 100 µM (inactive) | 70.1 µM (inactive) | –
Cc1ccc(C(=O)CC(Cl)=C(Cl)Cl)cc1 | > 100 µM (inactive) | 25.7 µM (inactive) | 41.6 µM (inactive) | 38.8 µM (inactive) | > 100 µM (inactive) | 45.6 µM (inactive) | > 100 µM (inactive) | > 100 µM (inactive) | > 100 µM (inactive) | 54 µM (inactive) | 85.5 µM (inactive) | > 100 µM (inactive) | – | – | 49.3 µM (inactive) | > 100 µM (inactive) | > 100 µM (inactive) | > 100 µM (inactive) | > 100 µM (inactive)
Cc1cc(-c2ccc(C(=O)O)[nH]2)on1 | > 100 µM (inactive) | – | 56 µM (inactive) | 79.1 µM (inactive) | > 100 µM (inactive) | 32.4 µM (inactive) | 39 µM (inactive) | 69 µM (inactive) | 62.4 µM (inactive) | – | – | 66.7 µM (inactive) | – | 4.91 µM (inactive) | 29 µM (inactive) | > 100 µM (inactive) | 38.2 µM (inactive) | 65.6 µM (inactive) | > 100 µM (inactive)
CCOC(=O)C12CC1(C(=O)OCC)C1CCC2C1 (stereo not given) | > 100 µM (inactive) | 49.9 µM (inactive) | 68.5 µM (inactive) | > 100 µM (inactive) | > 100 µM (inactive) | 97.3 µM (inactive) | – | > 100 µM (inactive) | – | 71.6 µM (inactive) | > 100 µM (inactive) | 23.8 µM (inactive) | > 100 µM (inactive) | – | – | > 100 µM (inactive) | 91.8 µM (inactive) | > 100 µM (inactive) | –
C=CCNc1ccc(C)cc1 | > 100 µM (inactive) | > 100 µM (inactive) | > 100 µM (inactive) | – | > 100 µM (inactive) | > 100 µM (inactive) | > 100 µM (inactive) | > 100 µM (inactive) | > 100 µM (inactive) | – | > 100 µM (inactive) | > 100 µM (inactive) | > 100 µM (inactive) | > 100 µM (inactive) | > 100 µM (inactive) | > 100 µM (inactive) | – | > 100 µM (inactive) | –
c1ccc(COc2ccc(CC3SCCCS3)cc2)cc1 | > 100 µM (inactive) | 34.4 µM (inactive) | 52.5 µM (inactive) | 62.7 µM (inactive) | > 100 µM (inactive) | > 100 µM (inactive) | > 100 µM (inactive) | – | > 100 µM (inactive) | 23.2 µM (inactive) | – | 17.8 µM (inactive) | – | > 100 µM (inactive) | > 100 µM (inactive) | > 100 µM (inactive) | > 100 µM (inactive) | – | –
CC12CCC(Br)C(C)(C)C1CC=C1C(=O)OCC1O2 (stereo not given) | 12.5 µM (inactive) | 5.15 µM (inactive) | 12.7 µM (inactive) | 11.6 µM (inactive) | 14 µM (inactive) | 16.9 µM (inactive) | 6.07 µM (inactive) | 11.8 µM (inactive) | 12 µM (inactive) | 1.84 µM (inactive) | 10.1 µM (inactive) | 11.9 µM (inactive) | 18.5 µM (inactive) | – | 3.52 µM (inactive) | 14.8 µM (inactive) | – | 9.77 µM (inactive) | 14.9 µM (inactive)
C[n+]1c2ccccc2c(C(=O)Nc2ccc(S(=O)(=O)N=C(N)N)cc2)c2ccccc21 | > 100 µM (inactive) | – | > 100 µM (inactive) | > 100 µM (inactive) | > 100 µM (inactive) | > 100 µM (inactive) | > 100 µM (inactive) | > 100 µM (inactive) | > 100 µM (inactive) | – | > 100 µM (inactive) | – | > 100 µM (inactive) | > 100 µM (inactive) | > 100 µM (inactive) | > 100 µM (inactive) | > 100 µM (inactive) | > 100 µM (inactive) | –
CC(NC(=O)NC(C)(C)C)NC(=O)C(N)CC(=O)O (stereo not given) | > 100 µM (inactive) | – | > 100 µM (inactive) | > 100 µM (inactive) | > 100 µM (inactive) | > 100 µM (inactive) | > 100 µM (inactive) | > 100 µM (inactive) | > 100 µM (inactive) | – | > 100 µM (inactive) | > 100 µM (inactive) | > 100 µM (inactive) | > 100 µM (inactive) | > 100 µM (inactive) | > 100 µM (inactive) | > 100 µM (inactive) | > 100 µM (inactive) | > 100 µM (inactive)
O=C(Nc1nc(C23CC4CC(CC(C4)C2)C3)cs1)c1cc2ccc(O)cc2oc1=O | 10.6 µM (inactive) | – | 4.88 µM (inactive) | 19.6 µM (inactive) | 26.8 µM (inactive) | 13.8 µM (inactive) | 14.1 µM (inactive) | 11.7 µM (inactive) | 18.3 µM (inactive) | 10.3 µM (inactive) | 18 µM (inactive) | 3.7 µM (inactive) | 11.2 µM (inactive) | 14 µM (inactive) | 10.2 µM (inactive) | 15.1 µM (inactive) | 12 µM (inactive) | 12.8 µM (inactive) | > 10 µM (inactive)
CCCCCCCCCCCCCCCCC1=CC(=O)C=C(OC)C1=O | > 100 µM (inactive) | 34.3 µM (inactive) | 47.4 µM (inactive) | > 100 µM (inactive) | > 100 µM (inactive) | > 100 µM (inactive) | > 100 µM (inactive) | 62.2 µM (inactive) | > 100 µM (inactive) | > 100 µM (inactive) | > 100 µM (inactive) | 56.8 µM (inactive) | 44 µM (inactive) | > 100 µM (inactive) | > 100 µM (inactive) | > 100 µM (inactive) | > 100 µM (inactive) | 32.5 µM (inactive) | –
O=C1CSSCC(=O)Nc2ccccc2N1 | > 100 µM (inactive) | > 100 µM (inactive) | > 100 µM (inactive) | > 100 µM (inactive) | > 100 µM (inactive) | > 100 µM (inactive) | – | > 100 µM (inactive) | > 100 µM (inactive) | > 100 µM (inactive) | > 100 µM (inactive) | > 100 µM (inactive) | > 100 µM (inactive) | > 100 µM (inactive) | > 100 µM (inactive) | > 100 µM (inactive) | > 100 µM (inactive) | > 100 µM (inactive) | > 100 µM (inactive)
CCOC(=O)C1(C(=O)OCC)COS(=O)OC1 | 32.6 µM (inactive) | 17.8 µM (inactive) | 21.4 µM (inactive) | – | > 100 µM (inactive) | 19.9 µM (inactive) | 19.1 µM (inactive) | 49.7 µM (inactive) | > 100 µM (inactive) | – | 20.8 µM (inactive) | 12.6 µM (inactive) | > 100 µM (inactive) | 35.5 µM (inactive) | 0.604 µM (active) | 35.1 µM (inactive) | – | > 100 µM (inactive) | –
NC(CCCCP(=O)(O)O)C(=O)O (stereo not given) | > 100 µM (inactive) | > 100 µM (inactive) | > 100 µM (inactive) | 14.3 µM (inactive) | > 100 µM (inactive) | > 100 µM (inactive) | – | > 100 µM (inactive) | > 100 µM (inactive) | > 100 µM (inactive) | – | > 100 µM (inactive) | > 100 µM (inactive) | > 100 µM (inactive) | 26.9 µM (inactive) | > 100 µM (inactive) | – | > 100 µM (inactive) | > 100 µM (inactive)
CC1(C)CCC2=C(O1)c1ccccc1/C(=N/c1ccc([N+](=O)[O-])cc1)C2=O | 12.9 µM (inactive) | 14.2 µM (inactive) | 13.4 µM (inactive) | 16.7 µM (inactive) | 18.6 µM (inactive) | 12.3 µM (inactive) | 13.2 µM (inactive) | – | – | 0.728 µM (active) | 12.4 µM (inactive) | 39.1 µM (inactive) | – | 14.9 µM (inactive) | 13.6 µM (inactive) | 16.3 µM (inactive) | 16 µM (inactive) | 14.4 µM (inactive) | 20.1 µM (inactive)
